Measurements reported in ChEMBL document CHEMBL1142751, “Synthesis and biological activity of mustard derivatives of combretastatins” (Bioorg Med Chem Lett, 2005).

Test system: SH-SY5Y
Assay: Inhibitory concentration against Human SH-SY5Y neuroblastoma cells
Format: functional, cell-based

Row | SMILES | IC50 [nM]
1 | COc1ccc(/C=C\c2cc(OC)c(OC)c(OC)c2)cc1OC(=O)CCCc1ccc(N(CCCl)CCCl)cc1 | 0.64
2 | COc1ccc(/C=C\c2cc(OC)c(OC)c(OC)c2)cc1O [COMBRETASTATIN A4] | 1.5
3 | COc1ccc(/C=C\c2cc(OC)c(OC)c(OC)c2)cc1N(CCCl)CCCl | 860
4 | COc1ccc(/C=C\c2cc(OC)c(OC)c(OC)c2)cc1OCCN(CCCl)CCCl | 230
5 | COc1ccc(/C=C\c2cc(OC)c(OC)c(OC)c2)cc1N(CCO)CCO | > 10000
